# In patent US9238684B2, “SPANX-B polypeptides and their use” (The United States of America, as represented by the …, priority 2009, dated 2016):
# Legend:
# [1] = system: SPANX-B-specific CD4^+ T cell lines; experiment: IFNγ secretion (ELISA) by CD4+ T cell lines stimulated with antigen-pulsed autologous DCs; type: cell-based, human; conditions: for IFNγ secretion by CD4+ T cell lines on stimulation with pulsed DCs: CD4+ T cell lines generated with SPANX-B protein-treated autologous DCs, FIGS. 3A-C; for IFNγ secretion by SPANX-B-specific CD4+ T cell line: irradiated mature DCs pulsed with 1 μg/ml peptide, FIG. 3A; for generation of SPANX-B-specific CD4+ T cell lines using the peptide: lines recognized DCs incubated with SPANX-B protein dose-dependently, FIGS. 3C, 3D; for IFNγ secretion by SPANX-B-specific CD4+ T cell lines, fine mapping of the epitope: autologous DCs pulsed with peptide, lines generated to SPANX-B protein, Pep-1 or Pep-G1, FIG. 3D
# Description: T cell stimulation: To generate CD4^+ T cell lines, CD4^+ T cells (2×10^6) were stimulated with autologous DC pulsed with either SPANX-B protein (2 μg/mL), or with SPANX-B peptides (10 μg/mL) in the presence of IL-2 (20 U/mL) for seven days. T cells were re-stimulated once every week two times. To generate CD8^+ CTL lines, 2×10^6 CD8^+ T cells were stimulated with autologous DC pulsed with either SPANX-B protein (2 μg/mL) and SPANX-B peptides (10 μg/mL) in the presence of IL-2 (20 U/mL) and IL-15 (10 ng/mL) for seven days. T cells were weekly restimulated with peptide-loaded DCs for several times. To test antigen-specific activity of CD4^+ T cell lines, all experiments were performed in triplicates in 96-well plates with 1×10^5 CD4^+ T cells/well. […] T cell activity was judged by IFNγ secretion in culture supernatants by ELISA after 48 hours incubation (see below and Schiavo et al., Blood 107(12):4597-605, 2006). For most experiments, unless specified, 1:5 Target:Effector ratio was used.
# Detection of IFNγ by ELISA: ELISA was performed as described elsewhere (Schiavo et al., Blood 107(12):4597-605, 2006). Briefly, 96-well flat-bottom plates were coated with 2 μg/mL of anti-human IFNγ antibody (BD pharmingen, San Jose, Calif.) to capture secreted IFNγ. The captured IFNγ was detected with 0.5 μg/mL biotin-conjugated mouse anti-human IFNγ antibody and streptavidin-HRP (BD pharmingen, San Jose, Calif.). The assay was visualized with TMB peroxidase solution B (KPL, Gaithersburg, Md.) and read at OD450.
# [2] = system: murine anti-SPANX-B antibody; experiment: ELISA on peptide-coated plates with murine anti-SPANX-B antibody; type: binding; conditions: Ab from mice DNA immunized with SPANX-B-expressing plasmid; FIG. 1B
# Description: FIGS. 1A-1F are digital images, a graph and a schematic diagram illustrating the specificity of antibody and expression of SPANX-B in human immortalized tumor cell lines. FIG. 1A is a digital image showing ANEA-I0117 antibody recognized SPANX-B expressed in mouse erythroleukemia RL5 cells. Western blotting results are shown with ANEA-I0117 anti-SPANX-B antibody on lysates of RL5 cells (2 μl, 5 μl and 10 μl, respectively) transiently transduced with plasmid expressing SPANX-B (SPANX-B). Control lysates were made from untransduced parental RL5 cells (Control). FIG. 1B is a graph showing murine anti-SPANX-B antibody, which was generated from mice DNA immunized with plasmid expressing SPANX-B, recognized unique SPANX-B-specific insert of SPANX-B (encoded in Pep-G1 and Pep-2 peptides), ELISA assay on plates coated with various peptides that are depicted in FIG. 1C. […] FIG. 1D is a digital image showing the expression of SPANX-B protein evaluated by Western blotting with ANEA-I0117 Ab (1:5000) in lysates of cell lines, such as HEK293 (HEK), Jurkat, CRL 7002, UACC1273, 938 Mel, CCRF-CEM (CEM), and normal human donor PBMC (upper panel). The blot was stripped and hybridized with anti-actin antibody (lower panel). FIGS. 1E and 1F are digital images obtained from an immunohistochemistry and immunofluorescent assay, respectively, of melanoma (UACC1273) and ovarian carcinoma (2008 and OVCAR3) cell lines. The cells were stained with ANEA-I0117 Ab (right and bottom panels in FIG. 1E and FIG. 1F, respectively); and control IgG (left and upper panels in FIG. 1E and FIG. 1F, respectively).
# SPANX-B can be often found in the list of highly expressed genes in microarray study of human tumors, including hematological malignancies and breast cancer (see, for example, Minn et al., Nature 436(7050):518-24, 2005). To confirm this, expression was tested using two antibodies, a rabbit 3ANEA Ab and mouse SPANX-B Ab. […] The second SPANX-B Ab was produced from mice DNA immunized with SPANX-B-expressing plasmid. […] In contrast, it reacted with a second peptide Pep-2 that only represented unique for SPANX-B insert of Pep-G1 (FIGS. 1B and C).
# SPANX-B = experiment: DNA immunization of mice, serum ELISA on peptide-coated plates; type: in vivo; conditions: plates coated with peptide 5 μg/ml; FIG. 7
# Description: Mice were intradermally immunized twice with 25 μg plasmid DNA constructs including MIP-3α-SPANX-B. Sera were tested for SPANX-B antibodies by ELISA assay in 96-well plates coated with the indicated peptides (5 μg/ml). […] The other was near the N-terminus, encoded by Pep-G1 (SEQ ID NO: 14) and Pep-2 (SEQ ID NO: 2) and Pep-3 (SEQ ID NO: 3).
# [3] = system: SPANX-B-specific CD8^+ T cell lines; experiment: IFNγ secretion (ELISA) by CD8+ T cell lines stimulated with antigen-pulsed autologous DCs; type: cell-based, human; conditions: for IFNγ secretion by SPANX-B-specific CD8+ T cells on stimulation with pulsed DCs: irradiated autologous DCs, lines generated with SPANX-B protein, FIG. 5A
# [4] = system: primary human melanoma cells; experiment: CTL 51Cr release assay on primary human melanoma cells; type: cell-based; conditions: for lysis of HLA-A2-expressing primary melanoma tumors by CD8+ lines generated to the antigen: Tc526, Tc624 and Tc2492; for lysis of HLA-A2-negative primary melanoma tumors by CD8+ lines generated to the antigen: Tc2547 and Tc938, FIG. 6E
# Description: (§1) CTL assay and HLA blocking experiments: Tumor cell lines (target cells, 2×10^6) were incubated in 200 μL of fetal bovine serum (FBS) with 200 μCi of Na2^51CrO4 (PerkinElmer, Billerica, Mass.) for 2 hours at 37° C. Cells were washed with RPMI three times and resuspended in cRPMI with 10% FBS at 1×10^5 cells/mL. CTL assay was performed in triplicate in 96-well round bottom plates with 1×10^4/well ^51Cr-labeled target cells. The target cells were co-cultured at indicated ratios with effector cells (peptide-specific CD8^+ T cells) for 6 hours. The specific ^51Cr-release is calculated using formula: ((test sample release−spontaneous release)/(maximum release−spontaneous release))×100). Maximum release is for the target cells alone lysed with 2% Triton X-100.
# UACC1273 melanoma cells = experiment: CTL 6-hour 51Cr release assay on UACC1273; type: cell-based, human; conditions: SPANX-B-expressing, HLA-A2-positive target; FIGS. 6A-C
# Description: as §1
# HEK293 cells = experiment: CTL 51Cr release assay on HEK293 cells pulsed with Pep-2; type: cell-based, human; conditions: FIGS. 6A-C; for lysis of HLA-A2-expressing HEK293 cells pulsed with Pep-2 by CD8+ T cell lines generated to the antigen: HEK-A2, pulsed with 1 μg/ml Pep-2; for lysis of HLA-A2-negative parental HEK293 cells by CD8+ T cell lines generated to the antigen: HEK
# Description: as §1
# HLA-DR = experiment: HLA blocking of Pep-9-induced CD4+ T cell activation; type: cell-based, human
# Description: The MHC […] inhibition assays: HLA specific mAbs or control isotype matched IgG were preincubated with peptide-pulsed DCs at concentration of 10 μg/mL for one hour at 4° C. Cells were washed with PBS, irradiated at 4500 rad and mixed with T cells at indicated ratios. To block HLA class I expression, tumor cells lines were pretreated with 10 μg/mL of anti-HLA-A,B,C antibodies (BD Pharmingen, San Jose, Calif.) for one hour at 4° C. Cells were washed with PBS and labeled with ^51Cr as indicated above. IFNγ production was determined by ELISA after 48 hour incubation as described (Schiavo et al., Blood 107(12):4597-605, 2006).
# Next, to characterize HLA specificity, the CD4^+ T cell lines were stimulated with autologous DCs pulsed with Pep-9 in the presence of antibody that blocked HLA-DR, or HLA-DQ, or HLA-DP molecules. The stimulation of the SPANX-B-specific CD4^+ T cells was not affected by the presence of control antibody or antibodies that block HLA-DQ, or HLA-DP, or anti-MHC class I (FIGS. 4 A-C).
molecule,measurement,setting,value
"ALWFRNHFVFGGGTK (Synthetic peptide MOPC (9)) [control murine class II peptide, reference compound]",IFNγ secretion by CD4+ T cell lines on stimulation with pulsed DCs,[1],failed to respond
ANEANEANKTMPETPTGDSDP (Synthetic peptide Pep-G2),IFNγ secretion by CD4+ T cell lines on stimulation with pulsed DCs,[1],failed to respond
same,recognition of peptide by mouse SPANX-B Ab (ELISA),[2],but not other region-specific peptides
ENRINPDQMEEEEFIEITTERPKK (Synthetic peptide Pep-8),B cell epitope recognized by sera of immunized mice (ELISA),SPANX-B,Immunodominant B cell epitopes
GQQSSVRRL (Synthetic peptide Pep-3),B cell epitope recognized by sera of immunized mice (ELISA),SPANX-B,Immunodominant B cell epitopes
same,recognition of peptide by mouse SPANX-B Ab (ELISA),[2],but not other region-specific peptides
KRSVPCESNEANEANEANKTM (Synthetic peptide Pep-G1),B cell epitope recognized by sera of immunized mice (ELISA),SPANX-B,Immunodominant B cell epitopes
same,IFNγ secretion by CD4+ T cell lines on stimulation with pulsed DCs,[1],activated the CD4^+ T cell lines to secrete IFNγ
same,IFNγ secretion by SPANX-B-specific CD4+ T cell line,[1],can be also activated to secrete IFNγ
same,generation of SPANX-B-specific CD4+ T cell lines using the peptide,[1],readily generated
same,recognition of peptide by mouse SPANX-B Ab (ELISA),[2],preferentially recognized
KRTSPEELVNDHARENRINPDQME (Synthetic peptide Pep-7),B cell epitope recognized by sera of immunized mice (ELISA),SPANX-B,Immunodominant B cell epitopes
LVVRYRRNV (Synthetic peptide Pep-4),recognition of SPANX-B protein-pretreated DCs by CD8+ T cells generated with peptide-pulsed DCs,[3],also recognized SPANX-B protein-pretreated DCs
same,IFNγ secretion by SPANX-B-specific CD8+ T cells on stimulation with pulsed DCs,[3],secreted IFNγ
same,lysis of HLA-A2-expressing primary melanoma tumors by CD8+ lines generated to the antigen,[4],recognized and lysed
same,lysis of HLA-A2-negative primary melanoma tumors by CD8+ lines generated to the antigen,[4],not affected
same,lysis of UACC1273 melanoma cells by CD8+ T cell lines generated to the antigen,UACC1273 melanoma cells,killed UACC1273 melanoma cells
same,lysis of HLA-A2-expressing HEK293 cells pulsed with Pep-2 by CD8+ T cell lines generated to the antigen,HEK293 cells,lysed HLA-A2-expressing HEK293 cells that were pulsed with Pep-2
same,lysis of HLA-A2-negative parental HEK293 cells by CD8+ T cell lines generated to the antigen,HEK293 cells,did not kill
QPAPKKMKTSESSTILVVRYRRNV (Synthetic peptide Pep-6),IFNγ secretion by CD4+ T cell lines on stimulation with pulsed DCs,[1],failed to respond
same,recognition of peptide by mouse SPANX-B Ab (ELISA),[2],but not other region-specific peptides
"RSAPCASAEVNE (Synthetic peptide Pep-9 Mod) [Pep-9-Mod, reference compound]","IFNγ secretion by SPANX-B-specific CD4+ T cell lines, fine mapping of the epitope",[1],did not respond
RSVPCESNEANE (Synthetic peptide Pep-9),HLA restriction of recognition by human CD4+ T cells,HLA-DR,HLA-DR-restricted fashion
same,"IFNγ secretion by SPANX-B-specific CD4+ T cell lines, fine mapping of the epitope",[1],able to activate the SPANX-B-specific CD4^+ T cell lines
RSVPCESNEVNETMPETPTGDSDP (Synthetic peptide Pep-5),IFNγ secretion by CD4+ T cell lines on stimulation with pulsed DCs,[1],activated the CD4^+ T cell lines to secrete IFNγ
same,IFNγ secretion by SPANX-B-specific CD4+ T cell line,[1],can be also activated to secrete IFNγ
same,generation of SPANX-B-specific CD4+ T cell lines using the peptide,[1],readily generated
same,recognition of peptide by mouse SPANX-B Ab (ELISA),[2],failed to recognize
"SPANX-B protein: Recombinant SPANX-B protein fused with maltose binding protein (MBP), produced and purified from E. coli (protein) MGQQSSVRRLKRSVPCESNEANEANEANKTMPETPTGDSDPQPAPKKMKTSESSTILVVRYRRNVKRTSPEELLNDHARENRINPDQMEEEEFIEITTERPKK","SPANX-B-specific CD8+ T cell lines generated, donors","[3]; HLA-A2-positive peripheral blood CD8+ T cells, DCs incubated with SPANX-B protein",3/3
same,IFNγ secretion by SPANX-B-specific CD8+ T cells on stimulation with pulsed DCs,[3],secreted IFNγ
same,lysis of HLA-A2-expressing primary melanoma tumors by CD8+ lines generated to the antigen,[4],recognized and lysed
same,lysis of HLA-A2-negative primary melanoma tumors by CD8+ lines generated to the antigen,[4],not affected
same,IFNγ secretion by CD4+ T cell lines on stimulation with pulsed DCs,[1],specifically recognized SPANX-B-treated DCs
same,lysis of UACC1273 melanoma cells by CD8+ T cell lines generated to the antigen,UACC1273 melanoma cells,killed UACC1273 melanoma cells
same,lysis of HLA-A2-expressing HEK293 cells pulsed with Pep-2 by CD8+ T cell lines generated to the antigen,HEK293 cells,lysed HLA-A2-expressing HEK293 cells that were pulsed with Pep-2
same,lysis of HLA-A2-negative parental HEK293 cells by CD8+ T cell lines generated to the antigen,HEK293 cells,did not kill
